Test results reported in US11510964B2, “Macrocyclic peptides to decrease c-Myc protein levels and reduce cancer cell growth” (University of Kansas, priority 2017, dated 2022).
Non-standard residues stand in square brackets, D forms with d. Residues, ends and D or L forms follow the SMILES beside them.

How the values were obtained:
BPH-1 cells = assay: Cell viability assay (Trypan Blue); format: cell-based; settings: BPH-1 normal prostate cells, 1-40 μM, 48 h
Experimental: The viability of prostate cancer cells was determined using Trypan Blue (Sigma) per the manufacturer's instructions. Cells were grown in 6 well plates to a density of 1×10^5 cells/well to 75% confluency and treated with compound in 0.5% DMSO at the indicated concentrations for 24-72 h, with 0.5% DMSO as the vehicle control. After treatment, the cell media from each well was collected. The cells were washed with phosphate buffer saline (PBS), trypsinized, and collected. All of the cells, combined media, and washes were centrifuged at 250×g for 5 min. The supernatant was discarded, and the cell pellet was resuspended in 500 μL PBS. Trypan blue (10 μL) was added to 100 μL of resuspended cells, and the solution incubated for 10 min. The cell number in 10 μL was then counted using a hematocytometer. Viable cells (not stained) were distinguished from dead cells (colored blue) and the % viable cells calculated as follows: [(number of white cells)/(number of total cells (white+blue))]*100 and compared with untreated cells.^16

PC-3 cells = assay: Cell cycle analysis (PI, flow cytometry); format: cell-based, human; settings: PC-3, 10 μM
Experimental: PC-3 cells were grown in T-75 flask to 75% confluency and treated with either 10 μM [D-Trp]CJ-15,208 in 0.5% DMSO or 0.5% DMSO as a vehicle control for 24-48 h. After treatment, the cell media was collected, the cells were washed with ice cold PBS twice, and the washes collected with the media. The cells were then trypsinized and the combined cells and media centrifuged at 1200 rpm for 5 min. The cell pellet was resuspended in PBS, the cells counted using a hematocytometer, and 1 million cells resuspended in 300 μL PBS. The cells were fixed with 700 μL ice cold 100% ethanol overnight and then centrifuged at 1200 rpm. Following removal of the ethanol, the cells were resuspended in 500 μL PBS containing 100 μg/mL RNAse and incubated for 30 min at room temperature. Propidium iodide (PI) solution (Sigma, 100 μg/mL) was added, and the solution then incubated for 30 min at room temperature in the dark. Cell cycle analysis^38 was performed using a Beckman-Coulter MoFlo XDP flow cytometer, and the cell cycle phase distribution was analyzed using FlowJo v10.1.
Each experiment was performed in triplicate unless otherwise stated in the figure legend. GraphPad Prism 5 was used to determine IC50 values. Data represent the mean value+/−SEM. Compound vs. vehicle treated cells in the cell cycle phase and apoptosis experiments (FIGS. 5-8) were compared using the student's t-test, with a two-tailed, unpaired method, using the Prism software. The effects of compound vs. vehicle treatment on protein levels (FIG. 10) were evaluated by one-way ANOVA with Dunnett's test for multiple comparisons.

[1] = test system: siRNA-transfected PC-3 cells; assay: c-Myc knockdown, Annexin V-APC/PI apoptosis assay; format: cell-based, human; settings: 10 μM, 48 h
Experimental: The extent of apoptosis was analyzed by detecting surface expression of phosphatidylserine on apoptotic cells using an Annexin V-APC/PI dual staining apoptosis detection kit I (BD Biosciences) according to the manufacturer's protocol. Following treatment of PC-3 cells with 10 μM [D-Trp]CJ-15,208 or vehicle for 24 h or 48 h, the cells were collected, washed twice with cold PBS, and resuspended in 1× binding buffer at a concentration of 1×10^6 cells/mL. Cell suspension (100 μL) was transferred to a 5 ml culture tube, and 5 μL of Annexin V-APC and 25 μL of PI (50 μg/mL) were added. The cells were incubated for 15 min at room temperature in the dark with gentle vortexing, 400 μL of 1× binding buffer was then added to each sample, and the samples were analyzed using a Beckman-Coulter MoFlo XDP flow cytometer within one hour. The number of viable, apoptotic and necrotic cells were quantified using FlowJo v10.0.7. The apoptosis fraction (%) was calculated as (number of apoptotic cells/the number of total cells observed)×100%.^38
PC-3 cells were seeded at a density of 2×10^6 cells in 10 cm plates and grown to 75-85% confluence in EMEM supplemented with 10% FBS and penicillin/streptomycin. […] Samples were analyzed using a BD FACSCanto-II cell analyzer and quantified in FlowJo v10.2. […]

[2] = mice, after systemic administration; cited from earlier work

O=C1N[C@H](Cc2c[nH]c3ccccc23)C(=O)N[C@@H](Cc2ccccc2)C(=O)N2CCC[C@@H]2C(=O)N[C@H]1Cc1ccccc1 [[D-Trp]CJ-15,208, cyclo[Phe-D-Pro-Phe-D-Trp]] (cyclo(F[dP]F[dW]))
cell death (Trypan blue) (BPH-1 cells): no evidence of cell death | cell population in G2 phase (PC-3 cells; 24 h): 42±4% | mean cell distribution in S phase (PC-3 cells; 24 h): 26±4% | mean cell population in G1 phase (PC-3 cells; 24 h): 32±1% | cells accumulated in G2 phase compared to vehicle treated control cells (PC-3 cells; 24 h or 48 h): at least 8 fold | cell population in G2 phase (PC-3 cells; 48 h): 58±4% | mean cell distribution in S phase (PC-3 cells; 48 h): 12±0.6% | mean cell population in G1 phase (PC-3 cells; 48 h): 31±6% | early apoptosis ([1]; PC-3 transfected with nontargeting siRNA): significantly increased early apoptosis | early apoptosis ([1]; PC-3 transfected with siRNA against c-Myc): did not significantly affect | blood-brain barrier penetration [2]: appear to penetrate the blood-brain barrier
